# What was measured:
# Assay in all cases: relative viability (nuclei count vs DMSO), 5 days (fraction); higher = more cells survive
# [1] = tested on: 201T
# Procedure, shortened: (§1)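 Cells from lung cancer lines were seeded into 1536-well plates and, one day later, dosed by pin tool. Treatments were either a single drug or a fixed dose of an anchor drug with five library-drug doses (not always all listed) in √10 steps. After 5 days, nuclei were stained in a one-step fixation (final 0.05% Triton X-100, 1% formaldehyde, 1 ug/ml Hoechst) and counted on 4× images, and relative viability is the treated-to-vehicle nuclei ratio, as the median of duplicate plates.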
# [2] = tested on: A-427
# Procedure, shortened: as §1
# [3] = tested on: BEN
# Procedure, shortened: as §1
# [4] = tested on: COR-L23
# Procedure, shortened: as §1
# [5] = tested on: EKVX
# Procedure, shortened: as §1
# [6] = tested on: EMC-BAC-2
# Procedure, shortened: as §1
# [7] = tested on: EPLC-272H
# Procedure, shortened: as §1
# [8] = tested on: HCC-827
# Procedure, shortened: as §1
# [9] = tested on: LCLC-103H
# Procedure, shortened: as §1
# [10] = tested on: LK-2
# Procedure, shortened: as §1
# [11] = tested on: LXF-289
# Procedure, shortened: as §1
# [12] = tested on: NCI-H1650
# Procedure, shortened: as §1
# [13] = tested on: NCI-H1651
# Procedure, shortened: as §1
# [14] = tested on: NCI-H1793
# Procedure, shortened: as §1
# [15] = tested on: NCI-H1915
# Procedure, shortened: as §1
# [16] = tested on: NCI-H2087
# Procedure, shortened: as §1
# [17] = tested on: NCI-H2126
# Procedure, shortened: as §1
# [18] = tested on: NCI-H2347
# Procedure, shortened: as §1
# [19] = tested on: NCI-H358
# Procedure, shortened: as §1
# [20] = tested on: NCI-H460
# Procedure, shortened: as §1
# [21] = tested on: NCI-H596
# Procedure, shortened: as §1
# [22] = tested on: SW 1573
# Procedure, shortened: as §1
smiles,measurement,setting,value
O=C(O)CCCCC(CCSCc1ccccc1)SCc1ccccc1 (centres undefined) [CPI-613] + Cc1nc(Nc2ncc(C(=O)Nc3c(C)cccc3Cl)s2)cc(N2CCN(CCO)CC2)n1 [Dasatinib] (partner 0.075 µM),relative viability,[1]; first compound 5 µM,0.553
same,relative viability,[1]; first compound 15.81 µM,0.527
same,relative viability,[1]; first compound 50 µM,0.488
same,relative viability,[1]; first compound 158.11 µM,0.352
same,relative viability,[1]; first compound 500 µM,0.303
same,relative viability,[2]; first compound 5 µM,0.684
same,relative viability,[2]; first compound 15.81 µM,0.765
same,relative viability,[2]; first compound 50 µM,0.547
same,relative viability,[2]; first compound 158.11 µM,0.365
same,relative viability,[2]; first compound 500 µM,0.131
same,relative viability,[3]; first compound 5 µM,0.341
same,relative viability,[3]; first compound 15.81 µM,0.293
same,relative viability,[3]; first compound 50 µM,0.293
same,relative viability,[3]; first compound 158.11 µM,0.267
same,relative viability,[3]; first compound 500 µM,0.279
same,relative viability,[4]; first compound 5 µM,0.568
same,relative viability,[4]; first compound 15.81 µM,0.493
same,relative viability,[4]; first compound 50 µM,0.485
same,relative viability,[4]; first compound 158.11 µM,0.334
same,relative viability,[4]; first compound 500 µM,0.0383
same,relative viability,[5]; first compound 5 µM,0.561
same,relative viability,[5]; first compound 15.81 µM,0.482
same,relative viability,[5]; first compound 50 µM,0.565
same,relative viability,[5]; first compound 158.11 µM,0.466
same,relative viability,[5]; first compound 500 µM,0.517
same,relative viability,[6]; first compound 5 µM,0.303
same,relative viability,[6]; first compound 15.81 µM,0.187
same,relative viability,[6]; first compound 50 µM,0.309
same,relative viability,[6]; first compound 158.11 µM,0.206
same,relative viability,[6]; first compound 500 µM,0.0369
same,relative viability,[7]; first compound 5 µM,0.317
same,relative viability,[7]; first compound 15.81 µM,0.334
same,relative viability,[7]; first compound 50 µM,0.449
same,relative viability,[7]; first compound 158.11 µM,0.219
same,relative viability,[7]; first compound 500 µM,0.0109
same,relative viability,[8]; first compound 5 µM,0.262
same,relative viability,[8]; first compound 15.81 µM,0.295
same,relative viability,[8]; first compound 50 µM,0.405
same,relative viability,[8]; first compound 158.11 µM,0.315
same,relative viability,[8]; first compound 500 µM,0.353
same,relative viability,[9]; first compound 5 µM,0.463
same,relative viability,[9]; first compound 15.81 µM,0.472
same,relative viability,[9]; first compound 50 µM,0.41
same,relative viability,[9]; first compound 158.11 µM,0.422
same,relative viability,[9]; first compound 500 µM,0.271
same,relative viability,[10]; first compound 5 µM,0.241
same,relative viability,[10]; first compound 15.81 µM,0.279
same,relative viability,[10]; first compound 50 µM,0.252
same,relative viability,[10]; first compound 158.11 µM,0.254
same,relative viability,[10]; first compound 500 µM,0.195
same,relative viability,[11]; first compound 5 µM,0.208
same,relative viability,[11]; first compound 15.81 µM,0.206
same,relative viability,[11]; first compound 50 µM,0.235
same,relative viability,[11]; first compound 158.11 µM,0.203
same,relative viability,[11]; first compound 500 µM,0.0464
same,relative viability,[12]; first compound 5 µM,0.353
same,relative viability,[12]; first compound 15.81 µM,0.285
same,relative viability,[12]; first compound 50 µM,0.312
same,relative viability,[12]; first compound 158.11 µM,0.082
same,relative viability,[12]; first compound 500 µM,0.0164
same,relative viability,[13]; first compound 5 µM,0.348
same,relative viability,[13]; first compound 15.81 µM,0.387
same,relative viability,[13]; first compound 50 µM,0.416
same,relative viability,[13]; first compound 158.11 µM,0.282
same,relative viability,[13]; first compound 500 µM,0.123
same,relative viability,[14]; first compound 5 µM,0.327
same,relative viability,[14]; first compound 15.81 µM,0.317
same,relative viability,[14]; first compound 50 µM,0.421
same,relative viability,[14]; first compound 158.11 µM,0.165
same,relative viability,[14]; first compound 500 µM,0.018
same,relative viability,[15]; first compound 5 µM,0.294
same,relative viability,[15]; first compound 15.81 µM,0.244
same,relative viability,[15]; first compound 50 µM,0.245
same,relative viability,[15]; first compound 158.11 µM,0.228
same,relative viability,[15]; first compound 500 µM,0.169
same,relative viability,[16]; first compound 5 µM,0.809
same,relative viability,[16]; first compound 15.81 µM,0.886
same,relative viability,[16]; first compound 50 µM,0.792
same,relative viability,[16]; first compound 158.11 µM,0.196
same,relative viability,[16]; first compound 500 µM,0.023
same,relative viability,[17]; first compound 5 µM,0.561
same,relative viability,[17]; first compound 15.81 µM,0.58
same,relative viability,[17]; first compound 50 µM,0.605
same,relative viability,[17]; first compound 158.11 µM,0.331
same,relative viability,[17]; first compound 500 µM,0.107
same,relative viability,[18]; first compound 5 µM,0.295
same,relative viability,[18]; first compound 15.81 µM,0.308
same,relative viability,[18]; first compound 50 µM,0.227
same,relative viability,[18]; first compound 158.11 µM,0.315
same,relative viability,[18]; first compound 500 µM,0.327
same,relative viability,[19]; first compound 15.81 µM,0.145
same,relative viability,[19]; first compound 50 µM,0.146
same,relative viability,[19]; first compound 158.11 µM,0.157
same,relative viability,[19]; first compound 500 µM,0.0248
same,relative viability,[20]; first compound 5 µM,0.54
same,relative viability,[20]; first compound 15.81 µM,0.454
same,relative viability,[20]; first compound 50 µM,0.572
same,relative viability,[20]; first compound 158.11 µM,0.334
same,relative viability,[20]; first compound 500 µM,0.317
same,relative viability,[21]; first compound 5 µM,0.647
same,relative viability,[21]; first compound 15.81 µM,0.616
same,relative viability,[21]; first compound 50 µM,0.628
same,relative viability,[21]; first compound 158.11 µM,0.465
same,relative viability,[21]; first compound 500 µM,0.0504
same,relative viability,[22]; first compound 5 µM,0.452
same,relative viability,[22]; first compound 15.81 µM,0.503
same,relative viability,[22]; first compound 50 µM,0.467
same,relative viability,[22]; first compound 158.11 µM,0.118
same,relative viability,[22]; first compound 500 µM,0.0385
